Results from patent publication US7033615B2, “Methods for regulating levels of zinc, cadmium and calcium in humans and for diagnosing, or screening for the risk of developing, diseases associated with abnormal levels of cadmium, zinc and calcium in body fluids and tissues” (CancEr2 Inc., priority 1999, dated 2006).

Key:
[1] = Counter-exchange of serum cadmium to erythrocytes (erythrocyte Cd/(erythrocyte Cd+serum Cd)) in men given cadmium sulfate; assay type: in vivo; conditions: CdSO4 1 mg daily
Procedure: (§1) Three healthy men with low PSA levels (below 2 ng/ml) volunteered for weekly blood and urine collection while a serial treatment of zinc, zinc with cadmium, and cadmium was administered. Treatment was given daily over a nine week period, followed by three weeks of continued sampling with no treatment. The zinc was administered in the form of zinc sulfate (Zn SO4) at a daily dosage of 75 mg. The cadmium was administered in the form of cadmium sulfate (CdSO4) at a daily dosage of 1 mg. Blood and urine were collected one day prior to the beginning of treatment for purposes of establishing a baseline level of chemicals in the blood and urine. Zinc salt administration began on the second day of the study and was administered each morning. On day 15, the cadmium salt administration was begun in the evening, with continued zinc salt administration continuing in the morning. Zinc administration was discontinued on day 43; cadmium administration continued through day 57. On days 58–78 of the study, neither zinc nor cadmium was administered, but blood and urine samples continued to be collected. Blood and urine were collected one day each week (days 1, 8, 15, etc.) for a total of 12 collection days over an 11 week period. […]
(§2) The second syringe contained no EDTA and was used to collect blood serum. […] All processed blood samples were stored in a −80° C. freezer until analyzed. […]

erythrocytes = assay: Blockage of calcium penetration into erythrocytes (serum calcium/erythrocyte calcium) in men given cadmium sulfate; assay type: in vivo; conditions: three men, CdSO4 1 mg daily
Procedure: as §1, §2

[2] = system: rat tissue vs human tissue; conditions: rat tissue more sensitive than human tissue; cited from earlier work

With `O=S(=O)([O-])[O-].[Cd+2]` [cadmium, cadmium sulfate] the “increase of counter-exchange of serum cadmium to erythrocytes in each man” value ([1]; three healthy low-PSA men, minimum increase per man) was no less than 116%, the “average cadmium counter-exchange after cadmium treatment (mean+/-S.D.)” value ([1]; three men, increased from 0.311 +/-0.166) was 0.466+/−0.077 and the “increase of blockage to calcium penetration in each man” value (erythrocytes) was 178–330%. For the same molecule, the “average blockage of calcium penetration after cadmium treatment (mean+/-S.D.)” value (erythrocytes; increased from 114.79+/-21.135, p=0.0492) was 314.001+/−150.942 and the “sensitivity of rat tissue to cadmium relative to human tissue” value [2] was 30 times.
